Laboratory results: patent US12054765B2, “Phytopathogenic fungus detecting apparatus, and detecting method and method for selecting concentration of agricultural chemical using same” (Panasonic Intellectual Property Management Co., Ltd., priority 2018, dated 2024)

Tested on: Botrytis cinerea
Assay: Hyphal growth of Botrytis cinerea in agricultural-chemical three-concentration-level layers-stacked culture media
Assay type: cell-based
Conditions: 25 degrees Celsius, seven days; for hyphae of Botrytis cinerea in the culture medium layer (microscope observation from side surface): potato dextrose agar
Text: Botrytis cinerea that is one type of phytopathogenic fungus and a pathogenic fungus of tomato gray mold disease was inoculated into a potato dextrose agar culture medium (Difco (registered trademark) Potato Dextrose Agar). Next, the culture medium was left to stand still at a temperature of 25 degrees Celsius for one week. […] Next, the Botrytis cinerea-cultured potato dextrose agar culture medium in which hyphae sufficiently grew was left under irradiation with black light for not less than four days and left in a room-temperature environment for not less than two weeks to promote spore formation. […] Hereinafter, this aqueous solution is referred to as an “aqueous phytopathogenic fungus solution”.
Agricultural-chemical main-ingredient reagent Captan (manufactured by Tokyo Chemical Industry Co., Ltd. (TCI)) was added to potato dextrose agar culture media, with a charging amount (concentration) changed, to produce three layers of original culture media. Captan was prepared into a dimethyl sulfoxide (DMSO) (manufactured by SIGMA-ALDRICH) solution of Captan at a concentration 100 times a standard use concentration. The solution was charged into and mixed with the potato dextrose agar culture media respectively in amounts of 0 ml, 2 ml, and 10 ml per 1 L of the potato dextrose agar culture media to make three-concentration-level culture media respectively at a Captan concentration of 0 (no blending) and in an amount ⅕ a standard use amount of Captan and the standard use amount. In the present example, the potato dextrose agar culture media containing Captan at three concentration levels were stacked from bottom in an order of the Captan standard amount culture medium, the culture medium in an amount ⅕ the Captan standard amount, and the medium with no Captan blended, and the stacked body was cut out with a glass cylindrical, square, or rectangular shape forming member into a device of the example. […]

O=C1C2CC=CCC2C(=O)N1SC(Cl)(Cl)Cl (stereo not drawn) [Captan]
amount at which an effect against Botrytis cinerea was exerted (effective concentration) (layer where hyphal growth stopped): ⅕ | hyphae of Botrytis cinerea in the culture medium layer (microscope observation from side surface) (lower layer 64, Captan blended in the standard amount): No hypha was confirmed | hyphae of Botrytis cinerea in the culture medium layer (microscope observation from side surface) (second layer 63, Captan blended in the amount ⅕ the standard use amount): no hypha of Botrytis cinerea was confirmed
